Measured values taken from patent US12344603B2 (Genentech, Inc., priority 2020, dated 2025).
Structures can show the parent of a compound that is named as a salt.

Molecular target: IRE1α (Homo sapiens (Human), UniProt O75460, D688N)
Experiment: IRE1α TR-FRET competition binding assay (IRE1α HTRF)
Conditions: TR-FRET competition binding to kinase domain of IRE1α
In short: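 Kinase domain (0.25 nM) pre-bound to 2 nM Eu anti-His antibody for 1 h at 4° C in HEPES pH 7.5/MgCl2/Brij 35/DTT/gamma globulin buffer, then mixed with compounds and 2 nM Alexa 647 ATP-competitive probe. 1 h at room temperature; probe displacement read as TR-FRET (Ex 347 nm, Em 665/615 nm).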

Chain of IRE1α (O75460 547-977 D688N): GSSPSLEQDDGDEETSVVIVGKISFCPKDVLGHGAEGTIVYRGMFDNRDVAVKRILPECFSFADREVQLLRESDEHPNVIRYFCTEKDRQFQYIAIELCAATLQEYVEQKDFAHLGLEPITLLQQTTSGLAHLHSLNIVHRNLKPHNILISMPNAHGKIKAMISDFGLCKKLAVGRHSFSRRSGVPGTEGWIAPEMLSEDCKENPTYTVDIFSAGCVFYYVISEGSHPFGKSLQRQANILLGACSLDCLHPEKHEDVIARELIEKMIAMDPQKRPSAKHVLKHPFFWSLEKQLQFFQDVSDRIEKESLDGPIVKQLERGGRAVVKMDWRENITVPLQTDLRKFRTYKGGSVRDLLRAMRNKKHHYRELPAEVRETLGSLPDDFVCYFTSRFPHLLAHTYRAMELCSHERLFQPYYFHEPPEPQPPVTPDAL

Row | Structure (SMILES) | IC50 [nM]
1 | CCn1c(=O)c(-c2cc(F)c(NS(=O)(=O)Cc3ccccc3)c(F)c2F)cc2cnc(N[C@@H]3CNC[C@@H](F)C3)nc21 [Compound 15, N-(4-(8-Ethyl-2-(((3S,5S)-5-fluoropiperidin-3-yl)amino)-7-oxo-7,8-dihydropyrido[2,3-d]pyrimidin-6-yl)-2,3,6-trifluorophenyl)-1-phenylmethanesulfonamide] | 0.21
2 | CC(C)n1c(=O)c(-c2cc(F)c(NS(=O)(=O)Cc3ccccc3)c(F)c2)nc2cnc(N[C@@H]3CNC[C@@H](F)C3)nc21 [Compound 45, N-(2,6-Difluoro-4-(2-(((3S,5S)-5-fluoropiperidin-3-yl)amino)-8-isopropyl-7-oxo-7,8-dihydropteridin-6-yl)phenyl)-1-phenylmethanesulfonamide] | 0.22
3 | COc1ccc(Cl)cc1CS(=O)(=O)Nc1c(F)cc(-c2cc3cnc(N[C@@H]4CNC[C@@H](F)C4)nc3n(C(C)C)c2=O)c(F)c1F [Compound 97, 1-(5-Chloro-2-methoxyphenyl)-N-(2,3,6-trifluoro-4-(2-(((3S,5S)-5-fluoropiperidin-3-yl)amino)-8-isopropyl-7-oxo-7,8-dihydropyrido[2,3-d]pyrimidin-6-yl)phenyl)methanesulfonamide hydrochloride] | 0.27
4 | CC(C)n1c(=O)c(-c2cc(F)c(NS(=O)(=O)Cc3cccnc3C(F)(F)F)c(F)c2F)cc2cnc(N[C@@H]3CNC[C@@H](F)C3)nc21 [Compound 139, N-(2,3,6-Trifluoro-4-(2-(((3S,5S)-5-fluoropiperidin-3-yl)amino)-8-isopropyl-7-oxo-7,8-dihydropyrido[2,3-d]pyrimidin-6-yl)phenyl)-1-(2-(trifluoromethyl)pyridin-3-yl)methanesulfonamide] | 0.27
5 | CC(C)n1c(=O)c(-c2ccc(NS(=O)(=O)c3ccccc3Cl)nc2)nc2cnc(N[C@H]3CC[C@H](N(C)CCF)CC3)nc21 [Compound 188, 2-Chloro-N-(5-(2-(((1r,4r)-4-((2-fluoroethyl)(methyl)amino)cyclohexyl)amino)-8-isopropyl-7-oxo-7,8-dihydropteridin-6-yl)pyridin-2-yl)benzenesulfonamide hydrochloride] | 0.27
6 | CC(C)n1c(=O)c(-c2ccc(NS(=O)(=O)CCC(F)(F)F)c(F)c2)cc2cnc(N[C@H]3CC[C@H](N4CC5(COC5)C4)CC3)nc21 [Compound 212, N-(4-(2-(((1,4-trans)-4-(2-Oxa-6-azaspiro[3.3]heptan-6-yl)cyclohexyl)amino)-8-isopropyl-7-oxo-7,8-dihydropyrido[2,3-d]pyrimidin-6-yl)-2-fluorophenyl)-3,3,3-trifluoropropane-1-sulfonamide] | 0.24
7 | CC(C)n1c(=O)c(-c2cc(F)c(NS(=O)(=O)Cc3ccccc3F)c(F)c2F)cc2cnc(N[C@@H]3CNC[C@H](O)C3)nc21 [Compound 89, 1-(2-fluorophenyl)-N-(2,3,6-trifluoro-4-(2-(((3S,5R)-5-hydroxypiperidin-3-yl)amino)-8-isopropyl-7-oxo-7,8-dihydropyrido[2,3-d]pyrimidin-6-yl)phenyl)methanesulfonamide] | 0.34
8 | CC(C)n1c(=O)c(-c2cc(F)c(NS(=O)(=O)Cc3ccc(F)cc3)cc2F)nc2cnc(N[C@H]3CC[C@H](N(C)C)CC3)nc21 [Compound 174, N-(4-(2-(((1r,4r)-4-(Dimethylamino)cyclohexyl)amino)-8-isopropyl-7-oxo-7,8-dihydropteridin-6-yl)-2,5-difluorophenyl)-1-(4-fluorophenyl)methanesulfonamide hydrochloride] | 0.26
9 | CC(C)n1c(=O)c(-c2cc(F)c(NC(=O)CC3CCC3)c(F)c2F)cc2cnc(N[C@H]3CC[C@H](N(C)C)CC3)nc21 [Compound 62, 2-Cyclobutyl-N-(4-(2-(((1r,4r)-4-(dimethylamino)cyclohexyl)amino)-8-isopropyl-7-oxo-7,8-dihydropyrido[2,3-d]pyrimidin-6-yl)-2,3,6-trifluorophenyl)acetamide] | 2.2
10 | CC(C)n1c(=O)c(-c2ccc(NS(=O)(=O)CC3CC4(C3)CC4(F)F)c(F)c2)nc2cnc(N[C@H]3CC[C@H](N(C)C)CC3)nc21 (some centres unmarked) [Example 262, 1-(2,2-Difluorospiro[2.3]hexan-5-yl)-N-[4-[2-[[4-(dimethylamino)cyclohexyl]amino]-8-isopropyl-7-oxo-pteridin-6-yl]-2-fluoro-phenyl]methanesulfonamide] | 0.3
11 | CC(C)n1c(=O)c(-c2ccc(NS(=O)(=O)c3ccccc3)c(F)c2)nc2cnc(N[C@@H]3CNC[C@@H](F)C3)nc21 [Compound 74, N-[2-Fluoro-4-[2-[[(3S,5S)-5-fluoro-3-piperidyl]amino]-8-isopropyl-7-oxo-pteridin-6-yl]phenyl]benzenesulfonamide] | 0.6
12 | O=c1c(-c2ccc(NS(=O)(=O)Cc3ccccc3F)c(F)c2)cc2cnc(N[C@@H]3CNC[C@@H](F)C3)nc2n1CCO [Compound 208, N-[2-Fluoro-4-[2-[[(3S,5S)-5-fluoro-3-piperidyl]amino]-8-(2-hydroxyethyl)-7-oxo-pyrido[2,3-d]pyrimidin-6-yl]phenyl]-1-(2-fluorophenyl)methanesulfonamide] | 1.2
13 | CC(C)n1c(=O)c(-c2c(F)cc(NS(=O)(=O)Cc3ccc(F)cc3)cc2F)cc2cnc(N[C@@H]3CNC[C@@H](F)C3)nc21 [Compound 130, N-(3,5-Difluoro-4-(2-(((3S,5S)-5-fluoropiperidin-3-yl)amino)-8-isopropyl-7-oxo-7,8-dihydropyrido[2,3-d]pyrimidin-6-yl)phenyl)-1-(4-fluorophenyl)methanesulfonamide hydrochloride] | 0.38
14 | CC(C)n1c(=O)c(-c2ccc(NS(=O)(=O)c3ccccc3Cl)nc2)cc2cnc(N[C@H]3CC[C@H](N(C)CCF)CC3)nc21 [Compound 146, 2-Chloro-N-(5-(2-(((1r,4r)-4-((2-fluoroethyl)(methyl)amino)cyclohexyl)amino)-8-isopropyl-7-oxo-7,8-dihydropyrido[2,3-d]pyrimidin-6-yl)pyridin-2-yl)benzenesulfonamide hydrochloride] | 0.16
15 | CC(C)n1c(=O)c(-c2cc(F)c(NS(=O)(=O)Cc3ccc(Cl)cc3)c(F)c2)cc2cnc(N[C@H]3CC[C@H](N(C)C)CC3)nc21 [Compound 116, 1-(4-Chlorophenyl)-N-(4-(2-(((1r,4r)-4-(dimethylamino)cyclohexyl)amino)-8-isopropyl-7-oxo-7,8-dihydropyrido[2,3-d]pyrimidin-6-yl)-2,6-difluorophenyl)methanesulfonamide] | 0.25
16 | Cc1ccc(CS(=O)(=O)Nc2c(F)cc(-c3cc4cnc(N[C@H]5CC[C@H](N(C)C)CC5)nc4n(C(C)C)c3=O)cc2F)cc1 [Compound 120, N-(4-(2-(((1r,4r)-4-(Dimethylamino)cyclohexyl)amino)-8-isopropyl-7-oxo-7,8-dihydropyrido[2,3-d]pyrimidin-6-yl)-2,6-difluorophenyl)-1-(p-tolyl)methanesulfonamide] | 1.7
17 | CC(C)n1c(=O)c(-c2ccc(NS(=O)(=O)CC3CC34CC4)c(F)c2)nc2cnc(N[C@H]3CC[C@H](N(C)C)CC3)nc21 (some centres unmarked) [Example 256, N-[4-[2-[[4-(Dimethylamino)cyclohexyl]amino]-8-isopropyl-7-oxo-pteridin-6-yl]-2-fluoro-phenyl]-1-spiro[2.2]pentan-2-yl-methanesulfonamide] | 0.3
18 | CC(C)n1c(=O)c(-c2ccc(NS(=O)(=O)CCC(F)(F)F)c(F)c2)cc2cnc(NC3CCC(O)C(N(C)C)C3)nc21 (centres unmarked) [Example 225, N-(4-(2-((3-(Dimethylamino)-4-hydroxycyclohexyl)amino)-8-isopropyl-7-oxo-7,8-dihydropyrido[2,3-d]pyrimidin-6-yl)-2-fluorophenyl)-3,3,3-trifluoropropane-1-sulfonamide] | 5.4
19 | Cc1cccc(S(=O)(=O)Nc2ccc(-c3cc4cnc(N[C@H]5CC[C@H](N(C)C)CC5)nc4n(C(C)C)c3=O)c(C)n2)c1F [Compound 137, N-(5-(2-(((1r,4r)-4-(Dimethylamino)cyclohexyl)amino)-8-isopropyl-7-oxo-7,8-dihydropyrido[2,3-d]pyrimidin-6-yl)-6-methylpyridin-2-yl)-2-fluoro-3-methylbenzenesulfonamide] | 0.48
20 | CC(C)n1c(=O)c(-c2ccc(NS(=O)(=O)Cc3ccccc3)c(F)c2F)cc2cnc(N[C@@H]3CNC[C@@H](F)C3)nc21 [Compound 9, N-(2,3-Difluoro-4-(2-(((3S,5S)-5-fluoropiperidin-3-yl)amino)-8-isopropyl-7-oxo-7,8-dihydropyrido[2,3-d]pyrimidin-6-yl)phenyl)-1-phenylmethanesulfonamide] | 0.28
21 | CC(C)n1c(=O)c(-c2ccc(NS(=O)(=O)CC3CC4C(C3)C4(F)F)c(F)c2)nc2cnc(N[C@H]3CC[C@H](N(C)C)CC3)nc21 (some centres unmarked) [Example 265, 1-(6,6-Difluoro-3-bicyclo[3.1.0]hexanyl)-N-[4-[2-[[4-(dimethylamino)cyclohexyl]amino]-8-isopropyl-7-oxo-pteridin-6-yl]-2-fluorophenyl]methanesulfonamide] | 0.2
22 | CC(C)n1c(=O)c(-c2ccc(NS(=O)(=O)c3ccccc3Cl)nc2)cc2cnc(N[C@@H]3CNC[C@@H](F)C3)nc21 [Compound 147, 2-Chloro-N-(5-(2-(((3S,5S)-5-fluoropiperidin-3-yl)amino)-8-isopropyl-7-oxo-7,8-dihydropyrido[2,3-d]pyrimidin-6-yl)pyridin-2-yl)benzenesulfonamide] | 0.27
23 | CCn1c(=O)c(-c2cc(F)c(NS(=O)(=O)Cc3cccc(C(F)(F)F)c3)c(F)c2F)cc2cnc(N[C@@H]3CNC[C@@H](F)C3)nc21 [Compound 39, N-(4-(8-Ethyl-2-(((3S,5S)-5-fluoropiperidin-3-yl)amino)-7-oxo-7,8-dihydropyrido[2,3-d]pyrimidin-6-yl)-2,3,6-trifluorophenyl)-1-(3-(trifluoromethyl)phenyl)methanesulfonamide] | 0.4
